Biological target: Aβ42 (Homo sapiens, UniProt P05067)
Assay: Th-T (thioflavin-T) assay of Aβ42 aggregation
Assay type: biochemical
Conditions: for Th-T fluorescence, mean of three wells: compound at 50

Aβ42, sequence (P05067 672-713): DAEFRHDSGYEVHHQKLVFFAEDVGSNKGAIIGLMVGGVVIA

C=C1CCC2C(C)(CCC=C(C)C)C(O)CCC2(C)C1Cc1c(OC)oc(CO)c(C)c1=O (stereo not drawn) [Compound 12]
Th-T fluorescence, mean of three wells (reading M54 of time course): 1.475 | Th-T fluorescence, mean of three wells (reading M55 of time course): 1.456 | Th-T fluorescence, mean of three wells (reading M56 of time course): 1.467 | Th-T fluorescence, mean of three wells (reading M57 of time course): 1.475 | Th-T fluorescence, mean of three wells (reading M58 of time course): 1.462 | Th-T fluorescence, mean of three wells (reading M59 of time course): 1.454 | Th-T fluorescence, mean of three wells (reading M60 of time course): 1.444 | Th-T fluorescence, mean of three wells (reading M61 of time course): 1.462 | Th-T fluorescence, mean of three wells (reading M62 of time course): 1.445 | Th-T fluorescence of Aβ42 with compound, mean of three wells (Fig. 7a source data) (concentration 10, unit not given, time-course reading M129): 2.41 | Th-T fluorescence of Aβ42 with compound, mean of three wells (Fig. 7a source data) (concentration 10, unit not given, time-course reading M130): 2.392 | Th-T fluorescence of Aβ42 with compound, mean of three wells (Fig. 7a source data) (concentration 10, unit not given, time-course reading M131): 2.376 | Th-T fluorescence of Aβ42 with compound, mean of three wells (Fig. 7a source data) (concentration 10, unit not given, time-course reading M132): 2.3677 | Th-T fluorescence of Aβ42 with compound, mean of three wells (Fig. 7a source data) (concentration 10, unit not given, time-course reading M133): 2.357 | Th-T fluorescence of Aβ42 with compound, mean of three wells (Fig. 7a source data) (concentration 10, unit not given, time-course reading M134): 2.346 | Th-T fluorescence of Aβ42 with compound, mean of three wells (Fig. 7a source data) (concentration 10, unit not given, time-course reading M135): 2.32 | Th-T fluorescence of Aβ42 with compound, mean of three wells (Fig. 7a source data) (concentration 10, unit not given, time-course reading M136): 2.323 | Th-T fluorescence of Aβ42 with compound, mean of three wells (Fig. 7a source data) (concentration 10, unit not given, time-course reading M137): 2.294 | Th-T fluorescence of Aβ42 with compound, mean of three wells (Fig. 7a source data) (concentration 10, unit not given, time-course reading M138): 2.29 | Th-T fluorescence of Aβ42 with compound, mean of three wells (Fig. 7a source data) (concentration 10, unit not given, time-course reading M139): 2.265 | Th-T fluorescence of Aβ42 with compound, mean of three wells (Fig. 7a source data) (concentration 10, unit not given, time-course reading M140): 2.265 | Th-T fluorescence of Aβ42 with compound, mean of three wells (Fig. 7a source data) (concentration 10, unit not given, time-course reading M141): 2.2429 | Th-T fluorescence of Aβ42 with compound, mean of three wells (Fig. 7a source data) (concentration 10, unit not given, time-course reading M142): 2.235 | Th-T fluorescence of Aβ42 with compound, mean of three wells (Fig. 7a source data) (concentration 10, unit not given, time-course reading M143): 2.219 | Th-T fluorescence of Aβ42 with compound, mean of three wells (Fig. 7a source data) (concentration 10, unit not given, time-course reading M144): 2.211 | Th-T fluorescence of Aβ42 with compound, mean of three wells (Fig. 7a source data) (concentration 10, unit not given, time-course reading M145): 2.191 | Th-T fluorescence of Aβ42 with compound, mean of three wells (Fig. 7a source data) (concentration 20, unit not given, time-course reading M129): 2.166 | Th-T fluorescence of Aβ42 with compound, mean of three wells (Fig. 7a source data) (concentration 20, unit not given, time-course reading M130): 2.19 | Th-T fluorescence of Aβ42 with compound, mean of three wells (Fig. 7a source data) (concentration 20, unit not given, time-course reading M131): 2.201 | Th-T fluorescence of Aβ42 with compound, mean of three wells (Fig. 7a source data) (concentration 20, unit not given, time-course reading M132): 2.206 | Th-T fluorescence of Aβ42 with compound, mean of three wells (Fig. 7a source data) (concentration 20, unit not given, time-course reading M133): 2.24 | Th-T fluorescence of Aβ42 with compound, mean of three wells (Fig. 7a source data) (concentration 20, unit not given, time-course reading M134): 2.215 | Th-T fluorescence of Aβ42 with compound, mean of three wells (Fig. 7a source data) (concentration 20, unit not given, time-course reading M135): 2.232 | Th-T fluorescence of Aβ42 with compound, mean of three wells (Fig. 7a source data) (concentration 20, unit not given, time-course reading M136): 2.218 | Th-T fluorescence of Aβ42 with compound, mean of three wells (Fig. 7a source data) (concentration 20, unit not given, time-course reading M137): 2.204 | Th-T fluorescence of Aβ42 with compound, mean of three wells (Fig. 7a source data) (concentration 20, unit not given, time-course reading M138): 2.229 | Th-T fluorescence of Aβ42 with compound, mean of three wells (Fig. 7a source data) (concentration 20, unit not given, time-course reading M139): 2.207 | Th-T fluorescence of Aβ42 with compound, mean of three wells (Fig. 7a source data) (concentration 20, unit not given, time-course reading M140): 2.233 | Th-T fluorescence of Aβ42 with compound, mean of three wells (Fig. 7a source data) (concentration 20, unit not given, time-course reading M141): 2.207 | Th-T fluorescence of Aβ42 with compound, mean of three wells (Fig. 7a source data) (concentration 20, unit not given, time-course reading M142): 2.239 | Th-T fluorescence of Aβ42 with compound, mean of three wells (Fig. 7a source data) (concentration 20, unit not given, time-course reading M143): 2.219 | Th-T fluorescence of Aβ42 with compound, mean of three wells (Fig. 7a source data) (concentration 20, unit not given, time-course reading M144): 2.234 | Th-T fluorescence of Aβ42 with compound, mean of three wells (Fig. 7a source data) (concentration 20, unit not given, time-course reading M145): 2.206 | Th-T fluorescence of Aβ42 with compound, mean of three wells (Fig. 7a source data) (concentration 50, unit not given, time-course reading M129): 1.589 | Th-T fluorescence of Aβ42 with compound, mean of three wells (Fig. 7a source data) (concentration 50, unit not given, time-course reading M130): 1.591 | Th-T fluorescence of Aβ42 with compound, mean of three wells (Fig. 7a source data) (concentration 50, unit not given, time-course reading M131): 1.579 | Th-T fluorescence of Aβ42 with compound, mean of three wells (Fig. 7a source data) (concentration 50, unit not given, time-course reading M132): 1.5892 | Th-T fluorescence of Aβ42 with compound, mean of three wells (Fig. 7a source data) (concentration 50, unit not given, time-course reading M133): 1.602 | Th-T fluorescence of Aβ42 with compound, mean of three wells (Fig. 7a source data) (concentration 50, unit not given, time-course reading M134): 1.607 | Th-T fluorescence of Aβ42 with compound, mean of three wells (Fig. 7a source data) (concentration 50, unit not given, time-course reading M135): 1.608 | Th-T fluorescence of Aβ42 with compound, mean of three wells (Fig. 7a source data) (concentration 50, unit not given, time-course reading M136): 1.609 | Th-T fluorescence of Aβ42 with compound, mean of three wells (Fig. 7a source data) (concentration 50, unit not given, time-course reading M137): 1.626 | Th-T fluorescence of Aβ42 with compound, mean of three wells (Fig. 7a source data) (concentration 50, unit not given, time-course reading M138): 1.633 | Th-T fluorescence of Aβ42 with compound, mean of three wells (Fig. 7a source data) (concentration 50, unit not given, time-course reading M139): 1.6439 | Th-T fluorescence of Aβ42 with compound, mean of three wells (Fig. 7a source data) (concentration 50, unit not given, time-course reading M140): 1.64 | Th-T fluorescence of Aβ42 with compound, mean of three wells (Fig. 7a source data) (concentration 50, unit not given, time-course reading M141): 1.647 | Th-T fluorescence of Aβ42 with compound, mean of three wells (Fig. 7a source data) (concentration 50, unit not given, time-course reading M142): 1.661

Reference: PMC7156458, “Synthetic biology based construction of biological activity-related library of fungal decalin-containing diterpenoid pyrones” (Nature Communications, 2020)
